Values of other authors, collected in patent US9789076B2, “Bolus dose of hydroxycitric acid with glycerol” (GLYKON TECHNOLOGIES GROUP, LLC, priority 2014, dated 2017).
Read-outs that look alike come from different tables or passages of the source.

Columns and labels:
[1] = rats, oral, 30 days
[2] = 0.33 mmoles/kg twice daily (total 0.66 mmoles/kg)

O=C(O)CC(O)(C(=O)O)C(O)C(=O)O (single isomer, unassigned; (-)) [hydroxycitrate, (−)-Hydroxycitric acid]
inhibition of acetate or ethanol incorporation into fatty acid synthesis (fatty acid synthesis): no hydroxycitrate inhibition

O=C([O-])CC(O)(C(=O)[O-])C(O)C(=O)[O-].[Na+].[Na+].[Na+] (stereo not drawn) [trisodium hydroxycitrate]
food consumption, percent of controls [1, 2]: 87%
weight gain, percent of controls [1, 2]: 62%
food consumption, percent of controls ([1]; 2.63 mmoles/kg as bolus): 83%
weight gain, percent of controls ([1]; 2.63 mmoles/kg as bolus): 64%
lowest effect dosage ([1]; given twice daily): 0.33 mmoles/kg body weight
